Results as given in publication PMC5218480 (PLoS ONE, 2017).

Tested on: MV-4-11 cells
Assay: Gene expression microarray analysis (Affymetrix PrimeView) and GSEA
Type: cell-based, human
Set-up: RFU PODN (11730768_x_at) / Fold change /veh PODN (11730768_x_at) / RFU LINC00158 (11744669_a_at) / Fold change /veh LINC00158 (11744669_a_at) / RFU DUSP10 (11751237_a_at) / Fold change /veh DUSP10 (11751237_a_at) / RFU ID3 (11757404_x_at) / Fold change /veh ID3 (11757404_x_at) / RFU PLEKHG5 (11737974_s_at) / Fold change /veh PLEKHG5 (11737974_s_at) / RFU LRRC4B (11730491_at) / Fold change /veh LRRC4B (11730491_at) / RFU GIMAP4 (11747438_a_at) / Fold change /veh GIMAP4 (11747438_a_at) / RFU KRT8 (11758183_x_at) / Fold change /veh KRT8 (11758183_x_at) / RFU CNN1 (11734310_a_at) / Fold change /veh CNN1 (11734310_a_at) / RFU VPS37D (11726825_at) / Fold change /veh VPS37D (11726825_at) / RFU C10orf10 (11716522_x_at) / Fold change /veh C10orf10 (11716522_x_at) / RFU KIR2DL2 /// KIR2DL4 /// KIR2DL5A /// KIR2DL5B /// KIR2DS1 /// KIR2DS2 /// KIR2DS3 /// KIR2DS4 /// KIR3DL3 /// KIR3DL3 /// KIR3DS1 (11738374_at) / Fold change /veh KIR2DL2 /// KIR2DL4 /// KIR2DL5A /// KIR2DL5B /// KIR2DS1 /// KIR2DS2 /// KIR2DS3 /// KIR2DS4 /// KIR3DL3 /// KIR3DL3 /// KIR3DS1 (11738374_at) / RFU C1QL1 (11718748_at) / Fold change /veh C1QL1 (11718748_at) / RFU TMPRSS4 (11747572_a_at) / Fold change /veh TMPRSS4 (11747572_a_at) / RFU HAMP (11756126_x_at) / Fold change /veh HAMP (11756126_x_at) / RFU RNFT2 (11725882_a_at) / Fold change /veh RNFT2 (11725882_a_at) / RFU NR4A2 (11747474_a_at) / Fold change /veh NR4A2 (11747474_a_at) / RFU ABCC12 (11746883_a_at) / Fold change /veh ABCC12 (11746883_a_at) / RFU TMEM136 (11760407_x_at) / Fold change /veh TMEM136 (11760407_x_at) / RFU CLDN22 /// WWC2 (11732394_at) / Fold change /veh CLDN22 /// WWC2 (11732394_at) / RFU HLA-DPB1 (11760878_x_at) / Fold change /veh HLA-DPB1 (11760878_x_at) / RFU SPINT1 (11716480_a_at) / Fold change /veh SPINT1 (11716480_a_at) / RFU GAP43 (11754022_s_at) / Fold change /veh GAP43 (11754022_s_at) / RFU A4GNT (11735810_at) / Fold change /veh A4GNT (11735810_at) / RFU PRB3 (11715151_x_at) / Fold change /veh PRB3 (11715151_x_at) / RFU TUBB4B (11761932_at) / Fold change /veh TUBB4B (11761932_at) / RFU CAPN14 (11732068_a_at) / Fold change /veh CAPN14 (11732068_a_at) / RFU TMCC2 (11721928_a_at) / Fold change /veh TMCC2 (11721928_a_at) / RFU IRGQ (11745062_a_at) / Fold change /veh IRGQ (11745062_a_at) / RFU FAM174B (11720279_a_at) / Fold change /veh FAM174B (11720279_a_at) / RFU TMPRSS4 (11748680_a_at) / Fold change /veh TMPRSS4 (11748680_a_at) / RFU FAM212B (11763350_a_at) / Fold change /veh FAM212B (11763350_a_at) / RFU PLEKHG5 (11743358_a_at) / Fold change /veh PLEKHG5 (11743358_a_at) / RFU ZSCAN30 (11745921_a_at) / Fold change /veh ZSCAN30 (11745921_a_at) / RFU CMKLR1 (11741424_a_at) / Fold change /veh CMKLR1 (11741424_a_at) / RFU LOC101060620 /// MAPK8IP1 (11723275_at) / Fold change /veh LOC101060620 /// MAPK8IP1 (11723275_at) / RFU SPTSSB (11747773_x_at) / Fold change /veh SPTSSB (11747773_x_at) / RFU PRSS12 (11739890_at) / Fold change /veh PRSS12 (11739890_at) / RFU BIN1 (11741810_x_at) / Fold change /veh BIN1 (11741810_x_at) / RFU WNT11 (11732464_a_at) / Fold change /veh WNT11 (11732464_a_at) / RFU C10orf10 (11716521_a_at) / Fold change /veh C10orf10 (11716521_a_at) / RFU C5orf56 (11738089_at) / Fold change /veh C5orf56 (11738089_at) / RFU CYB561 (11721691_x_at) / Fold change /veh CYB561 (11721691_x_at) / RFU ANKRD19P (11752326_a_at) / Fold change /veh ANKRD19P (11752326_a_at) / RFU OR2T12 /// OR2T33 /// OR2T8 (11738714_s_at) / Fold change /veh OR2T12 /// OR2T33 /// OR2T8 (11738714_s_at) / RFU VCAN (11748164_a_at) / Fold change /veh VCAN (11748164_a_at) / RFU JSRP1 (11732532_at) / Fold change /veh JSRP1 (11732532_at) / RFU KRTAP10-11 (11738290_x_at) / Fold change /veh KRTAP10-11 (11738290_x_at) / RFU MYO3A (11730013_a_at) / Fold change /veh MYO3A (11730013_a_at) / RFU EBF3 (11725865_a_at) / Fold change /veh EBF3 (11725865_a_at) / RFU CAMK2N1 (11719241_x_at) / Fold change /veh CAMK2N1 (11719241_x_at) / RFU C5orf56 (11738088_a_at) / Fold change /veh C5orf56 (11738088_a_at) / RFU OLFML3 (11715873_a_at) / Fold change /veh OLFML3 (11715873_a_at) / RFU LOC100653217 /// NTM (11731650_a_at) / Fold change /veh LOC100653217 /// NTM (11731650_a_at) / RFU MAPK11 (11762145_a_at) / Fold change /veh MAPK11 (11762145_a_at) / RFU FIZ1 (11724087_x_at) / Fold change /veh FIZ1 (11724087_x_at) / RFU OASL (11726364_x_at) / Fold change /veh OASL (11726364_x_at) / RFU SOX15 (11748057_x_at) / Fold change /veh SOX15 (11748057_x_at) / RFU CD79A (11719716_a_at) / Fold change /veh CD79A (11719716_a_at) / RFU HIST1H1D (11736915_at) / Fold change /veh HIST1H1D (11736915_at) / RFU CASKIN2 (11723855_a_at) / Fold change /veh CASKIN2 (11723855_a_at) / RFU LOC730098 (11760151_x_at) / Fold change /veh LOC730098 (11760151_x_at) / RFU OR4N2 (11742367_at) / Fold change /veh OR4N2 (11742367_at) / RFU PRRT2 (11749266_a_at) / Fold change /veh PRRT2 (11749266_a_at) / RFU SNX32 (11753110_a_at) / Fold change /veh SNX32 (11753110_a_at) / RFU CDHR5 (11726645_a_at) / Fold change /veh CDHR5 (11726645_a_at) / RFU RCAN1 (11760418_a_at) / Fold change /veh RCAN1 (11760418_a_at) / RFU FAM167A (11723789_a_at) / Fold change /veh FAM167A (11723789_a_at) / RFU FAM26E (11764081_at) / Fold change /veh FAM26E (11764081_at) / RFU ISYNA1 (11749810_s_at) / Fold change /veh ISYNA1 (11749810_s_at) / RFU ACY1 (11761880_at) / Fold change /veh ACY1 (11761880_at) / RFU 11764098_at / Fold change /veh 11764098_at / RFU SAMD14 (11745864_x_at) / Fold change /veh SAMD14 (11745864_x_at) / RFU NPB (11741838_a_at) / Fold change /veh NPB (11741838_a_at) / RFU TMPRSS6 (11731388_a_at) / Fold change /veh TMPRSS6 (11731388_a_at) / RFU KRTAP10-2 (11738614_at) / Fold change /veh KRTAP10-2 (11738614_at) / RFU ARHGAP8 /// PRR5-ARHGAP8 (11727945_x_at) / Fold change /veh ARHGAP8 /// PRR5-ARHGAP8 (11727945_x_at) / RFU KRTAP5-7 /// NADSYN1 (11734609_at) / Fold change /veh KRTAP5-7 /// NADSYN1 (11734609_at) / RFU RASL12 (11751679_a_at) / Fold change /veh RASL12 (11751679_a_at) / RFU CDKN2B (11736163_a_at) / Fold change /veh CDKN2B (11736163_a_at) / RFU PRF1 (11729649_at) / Fold change /veh PRF1 (11729649_at) / RFU, ZNF638 /// ZNF638-IT1 / Fold change vs veh, ZNF638 /// ZNF638-IT1 / RFU, PANK3 / Fold change vs veh, PANK3 / RFU, SH3YL1 / Fold change vs veh, SH3YL1 / RFU, ZEB2 / Fold change vs veh, ZEB2 / RFU, NRIP1 / Fold change vs veh, NRIP1 / RFU, PTTG1IP / Fold change vs veh, PTTG1IP / RFU, CAPN2 / Fold change vs veh, CAPN2 / RFU, MED14 / Fold change vs veh, MED14 / RFU, SNORA58 / Fold change vs veh, SNORA58 / RFU, C1orf63 / Fold change vs veh, C1orf63 / RFU, LRRFIP1 / Fold change vs veh, LRRFIP1 / RFU, NDUFAF7 / Fold change vs veh, NDUFAF7 / RFU, SLC12A2 / Fold change vs veh, SLC12A2 / RFU, IBTK / Fold change vs veh, IBTK / RFU, ESF1 / Fold change vs veh, ESF1 / Fold change vs veh, TMEM50B / RFU, TAOK1 / Fold change vs veh, TAOK1 / RFU, ACBD3 / Fold change vs veh, ACBD3 / RFU, TMA16 / Fold change vs veh, TMA16 / RFU, RWDD3 / Fold change vs veh, RWDD3 / RFU, BCAT1 / Fold change vs veh, BCAT1 / RFU, EDEM3 / Fold change vs veh, EDEM3 / RFU, TMEM33 / Fold change vs veh, TMEM33 / RFU, WDR75 / Fold change vs veh, WDR75 / RFU, AHCTF1 / Fold change vs veh, AHCTF1 / RFU, TFRC / Fold change vs veh, TFRC / RFU, ZDHHC17 / Fold change vs veh, ZDHHC17 / RFU, NOM1 / Fold change vs veh, NOM1 / RFU, ARL8B / Fold change vs veh, ARL8B / RFU, ZBTB11 / Fold change vs veh, ZBTB11 / RFU, TAMM41 / Fold change vs veh, TAMM41 / RFU, KIAA1704 /// LOC100996395 / Fold change vs veh, KIAA1704 /// LOC100996395 / RFU, ING1 / Fold change vs veh, ING1 / RFU, TRMT61B / Fold change vs veh, TRMT61B / RFU, FUBP3 / Fold change vs veh, FUBP3 / RFU, TP53 / Fold change vs veh, TP53 / RFU, TNKS2 / Fold change vs veh, TNKS2 / RFU, ZFP14 / Fold change vs veh, ZFP14 / RFU, ACTR2 / Fold change vs veh, ACTR2 / RFU, PPP3R1 / Fold change vs veh, PPP3R1 / RFU, PIK3R1 / Fold change vs veh, PIK3R1 / RFU, HNRNPA1 / Fold change vs veh, HNRNPA1 / RFU, RNF170 / Fold change vs veh, RNF170 / RFU, ZNF28 / Fold change vs veh, ZNF28 / RFU, RNGTT / Fold change vs veh, RNGTT / RFU, OGT / Fold change vs veh, OGT / RFU, BRD1 / Fold change vs veh, BRD1 / RFU, MARS / Fold change vs veh, MARS / RFU, ZNF655 / Fold change vs veh, ZNF655 / RFU, FAHD1 / Fold change vs veh, FAHD1 / RFU, BDP1 / Fold change vs veh, BDP1 / RFU, LRRCC1 / Fold change vs veh, LRRCC1 / RFU, ARID1A / Fold change vs veh, ARID1A / RFU, ZNF146 / Fold change vs veh, ZNF146 / RFU, ZNF330 / Fold change vs veh, ZNF330 / RFU, GPN3 / Fold change vs veh, GPN3 / RFU, C9orf123 / Fold change vs veh, C9orf123 / RFU, N4BP2L2 / Fold change vs veh, N4BP2L2 / RFU, ARFIP1 / Fold change vs veh, ARFIP1 / RFU, FAM179B / Fold change vs veh, FAM179B / RFU, BCL10 / Fold change vs veh, BCL10 / RFU, UHRF1BP1L / Fold change vs veh, UHRF1BP1L / RFU, BET1 / Fold change vs veh, BET1 / RFU, CNOT2 / Fold change vs veh, CNOT2 / RFU, ZNF268 / Fold change vs veh, ZNF268 / Fold change vs veh, ZNF507 / RFU, DGCR2 / Fold change vs veh, DGCR2 / RFU, WDSUB1 / Fold change vs veh, WDSUB1 / Fold change vs veh, HSP90B1 /// MIR3652 / RFU, ADSS / Fold change vs veh, ADSS / RFU, GK / Fold change vs veh, GK / RFU, ZNF148 / Fold change vs veh, ZNF148 / RFU, TAF9 / Fold change vs veh, TAF9 / RFU, SLC1A5 / Fold change vs veh, SLC1A5 / RFU, SLMO2 / Fold change vs veh, SLMO2 / RFU, ABCC4 / Fold change vs veh, ABCC4 / RFU, LOC101060439 /// RAP1B / Fold change vs veh, LOC101060439 /// RAP1B / RFU, RFX7 / Fold change vs veh, RFX7 / RFU, GTPBP10 / Fold change vs veh, GTPBP10 / RFU, CNEP1R1 / Fold change vs veh, CNEP1R1 / RFU, BIVM-ERCC5 /// ERCC5 / Fold change vs veh, BIVM-ERCC5 /// ERCC5 / RFU, ILF3 / Fold change vs veh, ILF3 / RFU 11762660_at / Fold change /veh 11762660_at / RFU VCAN (11757783_s_at) / Fold change /veh VCAN (11757783_s_at) / RFU DDX43 (11728927_at) / Fold change /veh DDX43 (11728927_at) / RFU KRT8 (11758188_x_at) / Fold change /veh KRT8 (11758188_x_at) / RFU NKD1 (11759106_at) / Fold change /veh NKD1 (11759106_at) / RFU SRD5A1 (11742802_a_at) / Fold change /veh SRD5A1 (11742802_a_at) / RFU TPSAB1 /// TPSB2 (11721975_s_at) / Fold change /veh TPSAB1 /// TPSB2 (11721975_s_at) / RFU GSTM3 (11746129_a_at) / Fold change /veh GSTM3 (11746129_a_at) / RFU IL23R (11737362_x_at) / Fold change /veh IL23R (11737362_x_at) / RFU TMEM51 (11727254_a_at) / Fold change /veh TMEM51 (11727254_a_at) / RFU PIWIL2 (11732686_x_at) / Fold change /veh PIWIL2 (11732686_x_at) / RFU ORM1 (11744905_x_at) / Fold change /veh ORM1 (11744905_x_at) / RFU CCDC152 (11743942_at) / Fold change /veh CCDC152 (11743942_at) / RFU ECM1 (11717891_a_at) / Fold change /veh ECM1 (11717891_a_at) / RFU IL23R (11748794_a_at) / Fold change /veh IL23R (11748794_a_at) / RFU TNFAIP8L3 (11732012_x_at) / Fold change /veh TNFAIP8L3 (11732012_x_at) / RFU MBOAT4 (11741988_at) / Fold change /veh MBOAT4 (11741988_at) / RFU 11764193_at / Fold change /veh 11764193_at / RFU TMEM53 (11763286_at) / Fold change /veh TMEM53 (11763286_at) / RFU MAGEB2 (11727129_at) / Fold change /veh MAGEB2 (11727129_at) / RFU TMEM200A (11744735_a_at) / Fold change /veh TMEM200A (11744735_a_at) / RFU CCDC152 (11751479_a_at) / Fold change /veh CCDC152 (11751479_a_at) / RFU FAM211A (11726209_a_at) / Fold change /veh FAM211A (11726209_a_at) / RFU RGS16 (11746705_a_at) / Fold change /veh RGS16 (11746705_a_at) / RFU VCAN (11755009_s_at) / Fold change /veh VCAN (11755009_s_at) / RFU RHOB (11743442_s_at) / Fold change /veh RHOB (11743442_s_at) / RFU RGS16 (11720943_a_at) / Fold change /veh RGS16 (11720943_a_at) / RFU RGS16 (11720944_at) / Fold change /veh RGS16 (11720944_at) / RFU, VPS4B / Fold change vs veh, VPS4B / RFU, CREB1 / Fold change vs veh, CREB1 / RFU, DNAJC13 / Fold change vs veh, DNAJC13 / RFU, GNAQ / Fold change vs veh, GNAQ / RFU, CDK5R1 / Fold change vs veh, CDK5R1 / RFU, ZRANB3 / Fold change vs veh, ZRANB3 / RFU, CUL4A / Fold change vs veh, CUL4A / RFU, CCNY / Fold change vs veh, CCNY / RFU, UFL1 / Fold change vs veh, UFL1 / RFU, COG3 / Fold change vs veh, COG3 / RFU, DIAPH2 / Fold change vs veh, DIAPH2 / RFU, SKA2 / Fold change vs veh, SKA2 / RFU, AFF3 / Fold change vs veh, AFF3 / RFU, LMF1 / Fold change vs veh, LMF1 / RFU, IPO11 / Fold change vs veh, IPO11 / RFU, DFFB / Fold change vs veh, DFFB / RFU, FOXP1 / Fold change vs veh, FOXP1 / RFU, CARD8 / Fold change vs veh, CARD8 / RFU, STRN3 / Fold change vs veh, STRN3 / RFU, ADK / Fold change vs veh, ADK / RFU, RASSF2 / Fold change vs veh, RASSF2 / RFU, WIPF1 / Fold change vs veh, WIPF1 / RFU, LARP1B / Fold change vs veh, LARP1B / RFU, RASA1 / Fold change vs veh, RASA1 / RFU, RB1 / Fold change vs veh, RB1 / RFU, PPFIA1 / Fold change vs veh, PPFIA1 / RFU, MAT2A / Fold change vs veh, MAT2A / RFU, CCT5 / Fold change vs veh, CCT5 / RFU, WDR92 / Fold change vs veh, WDR92 / RFU, CUX1 / Fold change vs veh, CUX1 / RFU, TTC7A / Fold change vs veh, TTC7A / RFU, TMEM135 / Fold change vs veh, TMEM135 / RFU, DEPTOR / Fold change vs veh, DEPTOR / RFU, CPM / Fold change vs veh, CPM / RFU, DNAJB6 / Fold change vs veh, DNAJB6 / RFU, CACNA2D3 / Fold change vs veh, CACNA2D3 / RFU, DTX4 / Fold change vs veh, DTX4 / RFU, TFCP2 / Fold change vs veh, TFCP2 / RFU, GMCL1 /// GMCL1P1 / Fold change vs veh, GMCL1 /// GMCL1P1 / RFU, AEBP2 / Fold change vs veh, AEBP2 / RFU, SNHG1 /// SNORD22 /// SNORD25 /// SNORD26 /// SNORD27 /// SNORD28 /// SNORD29 /// SNORD31 / Fold change vs veh, SNHG1 /// SNORD22 /// SNORD25 /// SNORD26 /// SNORD27 /// SNORD28 /// SNORD29 /// SNORD31 / Fold change (Aza/veh), C12orf56 (ProbeSet 11735607_a_at) / Fold change (ACY-1035/veh), C12orf56 (ProbeSet 11735607_a_at) / Fold change (Aza/veh), FGFR1OP (ProbeSet 11751329_s_at) / Fold change (ACY-1035/veh), FGFR1OP (ProbeSet 11751329_s_at) / Fold change (Aza/veh), VPS36 (ProbeSet 11739960_a_at) / Fold change (ACY-1035/veh), VPS36 (ProbeSet 11739960_a_at) / RFU SYPL1 (11715823_x_at) / Fold change /veh SYPL1 (11715823_x_at) / RFU IGFBP7 (11715501_s_at) / Fold change /veh IGFBP7 (11715501_s_at) / RFU REEP3 (11722064_at) / Fold change /veh REEP3 (11722064_at) / RFU IGLL1 (11728026_x_at) / Fold change /veh IGLL1 (11728026_x_at): dose or concentration left out as unconfirmed
Conditions: MV-4-11 cells, 48 hours

SMILES: Nc1ccc(-c2cccs2)cc1NC(=O)c1ccc2c(c1)cc(C1CC1)n2CCN1CCOCC1 [ACY-1035]
- RFU ORM1 (11744905_x_at): 9.21 RFU
